From PubChem BioAssay AID1259408 (Genetic Toxicology Data Bank (GENE-TOX), 2018)
Calls of active or inactive are those of the source. No rule for the calls is given here.

System: GENE-TOX genotoxicity assays, various organisms and cells
Assay: GENE-TOX mutagenicity studies
Conditions: for call: Assay Type: In vivo carcinogenicity studies
[1] = Species/Cell Type: Bacillus subtilis (H17 vs M45), Assay Type: Rec-assay, spot test, DNA effects (bacterial DNA repair), Assay Code: REW+, Evaluation Type: Evaluation A (Pre-1980)
[2] = Species/Cell Type: Drosophila melanogaster, Assay Type: Sex-linked recessive lethal gene mutation, Assay Code: SRLT, Evaluation Type: Evaluation A (Pre-1980)
[3] = Species/Cell Type: Human, Assay Type: Sister-chromatid exchange (SCE) in vitro, Assay Code: SC1+D, Dose Response: With dose response, Evaluation Type: Evaluation B (Post-1980)
[4] = Species/Cell Type: Mouse, Sex: Male, Assay Type: Sperm morphology, Assay Code: SPI-, Evaluation Type: Evaluation A (Pre-1980)
[5] = Species/Cell Type: Nonhuman, Assay Code: CCG+, Evaluation Type: Evaluation A (Pre-1980)
[6] = Species/Cell Type: Saccharomyces cerevisiae, Assay Type: Mitotic recombination or gene conversion, Assay Code: YEC+, Evaluation Type: Evaluation A (Pre-1980)
[7] = Species/Cell Type: Salmonella typhimurium (one or more of the five standard strains: TA98, TA100, TA1535, TA1537, and TA1538), Assay Type: Histidine reverse gene mutation, Ames assay, Assay Code: SAL+, Evaluation Type: Evaluation A (Pre-1980)
[8] = Species/Cell Type: Drosophila melanogaster, Assay Type: Sex-linked recessive lethal gene mutation, Assay Code: SRL+, Evaluation Type: Evaluation A (Pre-1980)
[9] = Species/Cell Type: Allium cepa, Assay Type: Chromosome aberrations, Assay Code: ALC+, Evaluation Type: Evaluation A (Pre-1980)
[10] = Species/Cell Type: Nonhuman, Assay Type: Sister-chromatid exchange (SCE) in vitro, Assay Code: SC2T, Evaluation Type: Evaluation B (Post-1980)
[11] = Species/Cell Type: Nonhuman, Assay Type: Sister-chromatid exchange (SCE) in vitro, Assay Code: SC2+, Evaluation Type: Evaluation B (Post-1980)

NC(=O)/C(=C\c1ccc([N+](=O)[O-])o1)c1ccco1
mutagenic call [1]: active; positive | mutagenic call (Species/Cell Type: Chinese hamster lung (V79) cells, Assay Type: Forward gene mutation at the HPRT or ouabain locus, Assay Code: V79+, Evaluation Type: Evaluation A (Pre-1980)): active; positive | mutagenic call [2]: no conclusion | mutagenic call (Species/Cell Type: Escherichia coli WP2 UVRA, Assay Type: Tryptophan reverse gene mutation, Assay Code: WPU+D, Dose Response: With dose response, Evaluation Type: Evaluation A (Pre-1980)): active; positive | mutagenic call (Species/Cell Type: Human diploid fibroblasts, Assay Type: Unscheduled DNA synthesis (UDS) in vitro, DNA effects, Assay Code: UDHT, Evaluation Type: Evaluation A (Pre-1980)): no conclusion | mutagenic call [3]: active; positive | mutagenic call (Species/Cell Type: Mammalian polychromatic erythrocytes, Assay Type: Micronucleus test, chromosome aberrations, Assay Code: MNTT, Evaluation Type: Evaluation A (Pre-1980)): no conclusion | mutagenic call (Species/Cell Type: Mouse lymphoma (L5178Y) cells, Assay Type: Forward gene mutation at the thymidine kinase (TK) locus, chromosome aberrations, Assay Code: L51+, Evaluation Type: Evaluation A (Pre-1980)): active; positive | mutagenic call [4]: inactive; negative | mutagenic call (Species/Cell Type: Neurospora crassa, Assay Type: Forward gene mutation, Assay Code: NEF+, Evaluation Type: Evaluation A (Pre-1980)): active; positive | mutagenic call (Species/Cell Type: Neurospora crassa, Assay Type: Reverse gene mutation, Assay Code: NER+, Evaluation Type: Evaluation A (Pre-1980)): active; positive | call [5]: active; positive | mutagenic call (Species/Cell Type: Nonhuman, Assay Type: Sister-chromatid exchange (SCE) in vitro, Assay Code: SC2+D, Dose Response: With dose response, Evaluation Type: Evaluation B (Post-1980)): active; positive | mutagenic call (Species/Cell Type: Rodents, Sex: Male, Assay Type: Dominant lethal test, Assay Code: DLT-, Evaluation Type: Evaluation A (Pre-1980)): inactive; negative | mutagenic call [6]: active; positive | mutagenic call (Species/Cell Type: Saccharomyces cerevisiae, Assay Type: Mitotic recombination or gene conversion, Assay Code: YEH+, Evaluation Type: Evaluation A (Pre-1980)): active; positive | mutagenic call (Species/Cell Type: Saccharomyces cerevisiae, Assay Type: Reverse gene mutation, Assay Code: YER+, Evaluation Type: Evaluation A (Pre-1980)): active; positive | mutagenic call [7]: active; positive | mutagenic call (Species/Cell Type: Syrian hamster embryo (SHE) cells, Assay Type: Cell transformation, clonal assay, Assay Code: CTC+, Evaluation Type: Evaluation A (Pre-1980)): active; positive

CSc1nc2c(c(=O)n(C)c(=O)n2C)n1C
mutagenic call (Species/Cell Type: Allium cepa, Assay Type: Chromosome aberrations, Assay Code: ALC+D, Dose Response: With dose response, Evaluation Type: Evaluation A (Pre-1980)): active; positive

O=C1OCCN1N=Cc1ccc([N+](=O)[O-])o1
mutagenic call [1]: active; positive | mutagenic call [8]: active; positive | mutagenic call (Species/Cell Type: Escherichia coli WP2, Assay Type: Tryptophan reverse gene mutation, Assay Code: WP2+, Evaluation Type: Evaluation A (Pre-1980)): active; positive | mutagenic call (Species/Cell Type: Escherichia coli WP2 UVRA, Assay Type: Tryptophan reverse gene mutation, Assay Code: WPU+, Evaluation Type: Evaluation A (Pre-1980)): active; positive | mutagenic call (Species/Cell Type: Human diploid fibroblasts, Assay Type: Unscheduled DNA synthesis (UDS) in vitro, DNA effects, Assay Code: UDH-, Evaluation Type: Evaluation A (Pre-1980)): inactive; negative | mutagenic call (Species/Cell Type: Human lymphocytes, Assay Type: Sister-chromatid exchange (SCE) in vitro, Assay Code: SCL+, Evaluation Type: Evaluation B (Post-1980)): active; positive | mutagenic call (Species/Cell Type: Human lymphocytes, Assay Type: Sister-chromatid exchange (SCE) in vitro, Assay Code: SCLT, Evaluation Type: Evaluation A (Pre-1980)): no conclusion | mutagenic call (Species/Cell Type: Human, Assay Type: Sister-chromatid exchange (SCE) in vitro, Assay Code: SC1+, Evaluation Type: Evaluation B (Post-1980)): active; positive | mutagenic call (Species/Cell Type: Human, Assay Type: Sister-chromatid exchange (SCE) in vitro, Assay Code: SC1T, Evaluation Type: Evaluation A (Pre-1980)): no conclusion

O=NN1CC=CCC1
mutagenic call (Species/Cell Type: Drosophila melanogaster, Assay Type: Aneuploidy, partial sex chromosome loss, chromosome aberrations, Assay Code: DAPT, Evaluation Type: Evaluation A (Pre-1980)): no conclusion | mutagenic call (Species/Cell Type: Drosophila melanogaster, Assay Type: Aneuploidy, whole sex chromosome loss, chromosome aberrations, Assay Code: DACT, Evaluation Type: Evaluation A (Pre-1980)): no conclusion | mutagenic call [8]: active; positive | mutagenic call [7]: active; positive

CCC(C)c1cc([N+](=O)[O-])cc([N+](=O)[O-])c1OC(C)=O (stereo not given)
mutagenic call (Species/Cell Type: Saccharomyces cerevisiae, Assay Type: Mitotic recombination or gene conversion, Assay Code: YEC-, Evaluation Type: Evaluation A (Pre-1980)): inactive; negative

Nc1cc(Cl)c(Cl)cc1N
mutagenic call (Species/Cell Type: Mammalian polychromatic erythrocytes, Assay Type: Micronucleus test, chromosome aberrations, Assay Code: MNTT, Evaluation Type: Evaluation B (Post-1980)): no conclusion

c1ccc(N=NNc2ccccc2)cc1
mutagenic call [9]: active; positive

C[C@]12CC[C@@H]3c4ccc(O)cc4CC[C@H]3[C@@H]1CC[C@@H]2O
mutagenic call (Species/Cell Type: Human lymphocytes, Assay Type: Sister-chromatid exchange (SCE) in vitro, Assay Code: SCL-*, Activation: With metabolic activation, Evaluation Type: Evaluation B (Post-1980)): inactive; negative | mutagenic call (Species/Cell Type: Human lymphocytes, Assay Type: Sister-chromatid exchange (SCE) in vitro, Assay Code: SCL-, Evaluation Type: Evaluation B (Post-1980)): inactive; negative | mutagenic call (Species/Cell Type: Human, Assay Type: Sister-chromatid exchange (SCE) in vitro, Assay Code: SC1-, Evaluation Type: Evaluation B (Post-1980)): inactive; negative | mutagenic call (Species/Cell Type: Mouse, Sex: Male, Assay Type: Sperm morphology, Assay Code: SPI+, Evaluation Type: Evaluation A (Pre-1980)): active; positive | call [5]: active; positive | mutagenic call [10]: no conclusion | mutagenic call (Species/Cell Type: Rat, Sex: Male, Assay Type: Sperm morphology, Assay Code: SPA+, Evaluation Type: Evaluation A (Pre-1980)): active; positive

OCNc1nc(NCO)nc(NCO)n1
mutagenic call [8]: active; positive

C[CH2][Pb]([Cl])([CH2]C)[CH2]C
mutagenic call (Species/Cell Type: Drosophila melanogaster, Assay Type: Aneuploidy, sex chromosome gain, chromosome aberrations, Assay Code: DAG-M, Evaluation Type: Evaluation A (Pre-1980)): inactive; negative | mutagenic call (Species/Cell Type: Drosophila melanogaster, Assay Type: Aneuploidy, whole sex chromosome loss, chromosome aberrations, Assay Code: DAC+M, Evaluation Type: Evaluation A (Pre-1980)): active; positive

CCCCCCCCC1CC1CCCCCCCC(=O)OCCOCCOC (stereo not given)
mutagenic call [10]: no conclusion

N#Cc1ccc(N)cc1
mutagenic call [4]: inactive; negative

CC(C)C[C@H](NC(=O)[C@@H](O)[C@H](N)Cc1ccccc1)C(=O)O
mutagenic call (Species/Cell Type: Human, Assay Type: Sister-chromatid exchange (SCE) in vitro, Assay Code: SC1T, Evaluation Type: Evaluation B (Post-1980)): no conclusion

Nc1ccc(Cl)cc1Cl
mutagenic call [4]: inactive; negative

CC=O
mutagenic call (Species/Cell Type: Escherichia coli polA (W3119 vs P3478), Assay Type: Rec-assay, DNA effects (bacterial DNA repair), Assay Code: RE1+, Evaluation Type: Evaluation A (Pre-1980)): active; positive | mutagenic call (Species/Cell Type: Human lymphocytes, Assay Type: Sister-chromatid exchange (SCE) in vitro, Assay Code: SCL+D, Dose Response: With dose response, Evaluation Type: Evaluation A (Pre-1980)): active; positive | mutagenic call (Species/Cell Type: Human, Assay Type: Sister-chromatid exchange (SCE) in vitro, Assay Code: SC1+D, Dose Response: With dose response, Evaluation Type: Evaluation A (Pre-1980)): active; positive | mutagenic call (Species/Cell Type: Nonhuman, Assay Type: Sister-chromatid exchange (SCE) in vitro, Assay Code: SC2+, Evaluation Type: Evaluation A (Pre-1980)): active; positive | mutagenic call (Species/Cell Type: Nonhuman, Assay Type: Sister-chromatid exchange (SCE) in vivo, Assay Code: SC3+D, Dose Response: With dose response, Evaluation Type: Evaluation B (Post-1980)): active; positive

C1CC[C@H]2O[C@H]2C1
mutagenic call [11]: active; positive | mutagenic call (Species/Cell Type: Nonhuman, Assay Type: Sister-chromatid exchange (SCE) in vitro, Assay Code: SC2T, Evaluation Type: Evaluation A (Pre-1980)): no conclusion

CNC(=O)CSP(=S)(OC)OC
mutagenic call [9]: active; positive | mutagenic call (Species/Cell Type: Bacillus subtilis (H17 vs M45), Assay Type: Rec-assay, spot test, DNA effects (bacterial DNA repair), Assay Code: REWT, Evaluation Type: Evaluation A (Pre-1980)): no conclusion | mutagenic call (Species/Cell Type: Drosophila melanogaster, Assay Type: Sex-linked recessive lethal gene mutation, Assay Code: SRL-, Evaluation Type: Evaluation A (Pre-1980)): inactive; negative | mutagenic call [3]: active; positive | mutagenic call (Species/Cell Type: Mammalian polychromatic erythrocytes, Assay Type: Micronucleus test, chromosome aberrations, Assay Code: MNT+U, Dose Response: Unconfirmed positive response, Evaluation Type: Evaluation B (Post-1980)): active; positive | call (Species/Cell Type: Nonhuman, Assay Code: CCG-, Evaluation Type: Evaluation A (Pre-1980)): inactive; negative | mutagenic call [11]: active; positive | mutagenic call [6]: active; positive | mutagenic call (Species/Cell Type: Vicia faba, Assay Type: Chromosome aberrations, Assay Code: VIC+D, Dose Response: With dose response, Evaluation Type: Evaluation A (Pre-1980)): active; positive

C/C=C/c1ccccc1
mutagenic call (Species/Cell Type: Human lymphocytes, Assay Type: Sister-chromatid exchange (SCE) in vitro, Assay Code: SCL+D, Dose Response: With dose response, Evaluation Type: Evaluation B (Post-1980)): active; positive | mutagenic call [3]: active; positive

Clc1ccc(Cl)c(Cl)c1
mutagenic call (Species/Cell Type: Mammalian polychromatic erythrocytes, Assay Type: Micronucleus test, chromosome aberrations, Assay Code: MNT+, Evaluation Type: Evaluation B (Post-1980)): active; positive

O=c1cc[nH]c(=S)[nH]1
mutagenic call [2]: no conclusion
